# Measurements reported in patent US7419789B2, “Method of inhibiting binding of Dengue virus to a human cell with DC-SIGN blockers” (Institut Pasteur, priority 2002, dated 2008).
# Test system: DEN-1 virus strain FGA/NA d1d
# Assay: Inhibition of DC-SIGN-mediated DEN-1 virus infection of THP/DC-SIGN cells, indirect immunofluorescence
# Format: cell-based, DEN-1 virus (human monocytic THP/DC-SIGN cells)
# Conditions: m.o.i. 5 AP61 FFU/cell
# Method: Prior to infection, THP-1/DC/SIGN cells were incubated with either Mab 9D12 (dilution 1:50), Mab BD12.5 (20 μg/ml), Mab 1B10.2.6 (20 μg/ml), EDTA (5 mM), mannan (20 μg/ml), or mock-treated (control). Treated cells were infected with DEN-1 virus strain FGA/NA did (5 AP61 FFU/cell) in the presence of reagents for 2 hrs. Viral antigens were detected by indirect immunofluorescence as described in the legend of FIG. 1. The percentages of infected cells 48 h post-infection are indicated. Values represent the mean of triplicate assays ±SD.
# Cells were washed once with RPMI 1640, incubated with highly purified virus in RPMI 1640 supplemented with 0.2% bovine serum albumine (BSA, pH 7.5) (Sigma) for 2 hrs at 37° C. and placed into fresh media supplemented with 2% FCS, 2 mM L-glutamine and antibiotics Peni/Strepto at 37° C. for 40 hrs.
# The percentage of cells expressing viral antigen was determined using either DEN-1 virus-specific hyperimmune mouse ascites fluid (HMAF) 9801 (strain Hawaï), WN virus-specific HMAF 0801 (strain IS-98-ST1), or YF virus-specific HMAF. 9803 (strain FNV) with dilution of 1:50, by indirect immunofluorescence as previously described (Desprès et al., J. Virol., 70: 4090, 1996). […]
Molecule,"infectivity of DEN-1 virus in preincubated THP/DC-SIGN cells (EDTA 5 mM, Mab 20 μg/ml)",reduction of FGA/NA d1d infectivity (20 μg/ml)
O=C(O)CN(CCN(CC(=O)O)CC(=O)O)CC(=O)O [EDTA],essentially abolished,
mannan,,75%
